The compounds below were run against T1, human full length HSD11 β 1 (Homo sapiens, UniProt P28845) (assay: In Vitro HSD11β1 Inhibition Assay). Settings: CHO cells transiently expressing human HSD11β1; 200 nM cortisone+500 uM NADPH overnight; cortisone to cortisol by LC/MS-MS; read-out: 11βHSD1 (IC50).
T1 construct: transient expression of human full length HSD11 β 1 expression vector; host or cells: CHO cells (transient transfection)
T1 sequence (P28845 whole entry): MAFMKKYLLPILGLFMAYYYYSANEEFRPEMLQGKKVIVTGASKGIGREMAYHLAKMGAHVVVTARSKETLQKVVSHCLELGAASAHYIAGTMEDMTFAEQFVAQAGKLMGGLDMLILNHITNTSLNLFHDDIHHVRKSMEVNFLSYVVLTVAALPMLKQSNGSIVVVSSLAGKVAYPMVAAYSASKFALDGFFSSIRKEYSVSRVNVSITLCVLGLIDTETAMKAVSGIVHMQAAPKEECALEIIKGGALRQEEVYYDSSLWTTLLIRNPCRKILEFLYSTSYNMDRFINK
Type: cell-based
Summary of the method: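 CHO cells transiently transfected with human full-length HSD11β1 were re-seeded after 24 h and, 24 h later, incubated overnight with 200 nM cortisone plus 500 uM NADPH and inhibitor. Cortisone-to-cortisol conversion was measured by LC/MS-MS. IC50 from an 8-point log concentration–inhibition curve.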
In the case of CC(CC(=O)N1CCCC2(CO)CCCCC12)c1c[nH]c2cccc(Cl)c12 (stereo not drawn) [Example 130, 3-(4-chloro-1H-indol-3-yl)-1-[4a-(hydroxymethyl)octahydroquinolin-1(2H)-yl]butan-1-one], the IC50 is reported as over 250 nM. For CC(CC(=O)N1CCCC2(CO)CCCCC12)c1c[nH]c2ccccc12 (stereo not drawn) [Example 131, 1-[4a-(hydroxymethyl)octahydroquinolin-1(2H)-yl]-3-(1H-indol-3-yl)butan-1-one], the IC50 was over 250 nM. Work on Cc1cccc2[nH]cc(C(C)CC(=O)N3CCCC4(O)CCCCC34)c12 (stereo not drawn) [Example 132, 1-(4a-hydroxyoctahydroquinolin-1(2H)-yl)-3-(4-methyl-1H-indol-3-yl)butan-1-one] yielded an IC50 of 150 to 200 nM. CC(C)C(CC(=O)N1CCOC2CCCCC21)c1c[nH]c2ccccc12 (stereo not drawn) [Example 133, 3-(1H-indol-3-yl)-4-methyl-1-(octahydro-4H-1,4-benzoxazin-4-yl)pentan-1-one] was tested, and the IC50 was over 250 nM. CC(C)C(CC(=O)N1CCOC2CCCCC21)c1cn(C)c2ccccc12 (stereo not drawn) [Example 134, 4-methyl-3-(1-methyl-1H-indol-3-yl)-1-(octahydro-4H-1,4-benzoxazin-4-yl)pentan-1-one] was tested, and the IC50 was over 250 nM. CC(C)C(CC(=O)N1CCOC2CCCCC21)c1c[nH]c2cccc(F)c12 (stereo not drawn) [Example 135, 3-(4-fluoro-1H-indol-3-yl)-4-methyl-1-(octahydro-4H-1,4-benzoxazin-4-yl)pentan-1-one] showed an IC50 of over 250 nM. CC(CC(=O)N1CCOC2CCCCC21)c1c[nH]c2cccc(F)c12 (stereo not drawn) [Example 136, 3-(4-fluoro-1H-indol-3-yl)-1-(octahydro-4H-1,4-benzoxazin-4-yl)butan-1-one] showed an IC50 of over 250 nM. Work on CCOC(=O)C12CCCCC1N(C(=O)CC(C)c1nc3ccccc3s1)CCC2 (stereo not drawn) [Example 141, ethyl 1-[3-(1,3-benzothiazol-2-yl)butanoyl]octahydroquinoline-4a(2H)-carboxylate] yielded an IC50 of over 250 nM. CC(CC(=O)N1CCC2CCCCC21)c1nc2ccccc2s1 (stereo not drawn) [Example 142, 3-(1,3-benzothiazol-2-yl)-1-(octahydro-1H-indol-1-yl)butan-1-one] was tested, and the IC50 was under 100 nM. For CC(CC(=O)N1CCCC2CCCCC21)c1c[nH]c2ncccc12 (stereo not drawn) [Example 143, 1-(octahydroquinolin-1(2H)-yl)-3-(1H-pyrrolo[2,3-b]pyridin-3-yl)butan-1-one], the IC50 was under 100 nM. Work on CC(CC(=O)N1CCCC2(CO)CCCCC12)c1c[nH]c2ncccc12 (stereo not drawn) [Example 146, 1-[4a-(hydroxymethyl)octahydroquinolin-1(2H)-yl]-3-(1H-pyrrolo[2,3-b]pyridin-3-yl)butan-1-one] yielded an IC50 of over 250 nM. For CC(CC(=O)N1CCCC2(CO)CCCCC12)c1c[nH]c2nccc(Cl)c12 (stereo not drawn) [Example 147, 3-(4-chloro-1H-pyrrolo[2,3-b]pyridin-3-yl)-1-[4a-(hydroxymethyl)octahydroquinolin-1(2H)-yl]butan-1-one], the IC50 was over 250 nM. CC(CC(=O)N1CCCC2(O)CCCCC12)c1c[nH]c2ncccc12 (stereo not drawn) [Example 148, 1-(4a-hydroxyoctahydroquinolin-1(2H)-yl)-3-(1H-pyrrolo[2,3-b]pyridin-3-yl)butan-1-one] was tested, and the IC50 was over 250 nM. Cc1cccc2[nH]cc(C(C)CC(=O)N3CCCC4(C#N)CCCCC34)c12 (stereo not drawn) [Example 149, 1-[3-(4-methyl-1H-indol-3-yl)butanoyl]octahydroquinoline-4a(2H)-carbonitrile] was tested, and the IC50 was over 250 nM. In the case of O=C(O)C1CCN(C(=O)CC(c2ccccc2)c2nc3ccccc3s2)C2CCCCC12 (stereo not drawn) [Example 152, 1-[3-(1,3-benzothiazol-2-yl)-3-phenylpropanoyl]decahydroquinoline-4-carboxylic acid], the IC50 is reported as over 250 nM. COC12CCCCC1N(C(=O)CC(C)c1c[nH]c3ncccc13)CCC2 (stereo not drawn) [Example 153, 1-(4a-methoxyoctahydroquinolin-1(2H)-yl)-3-(1H-pyrrolo[2,3-b]pyridin-3-yl)butan-1-one] showed an IC50 of 150 to 200 nM. For CC(CC(=O)N1CCC(C(=O)O)C2CCCCC21)c1nc2ccccc2s1 (stereo not drawn) [Example 154, 1-[3-(1,3-benzothiazol-2-yl)butanoyl]decahydroquinoline-4-carboxylic acid], the IC50 was over 250 nM. With O=C(O)C1CCN(C(=O)CC(c2ccccc2)c2c[nH]c3cccc(Cl)c23)C2CCCCC12 (stereo not drawn) [Example 155, 1-[3-(4-chloro-1H-indol-3-yl)-3-phenylpropanoyl]decahydroquinoline-4-carboxylic acid] the IC50 was over 250 nM. O=C(O)C1CCN(C(=O)CC(c2cccs2)c2c[nH]c3cccc(F)c23)C2CCCCC12 (stereo not drawn) [Example 156, 1-[3-(4-fluoro-1H-indol-3-yl)-3-(thiophen-2-yl)propanoyl]decahydroquinoline-4-carboxylic acid] was tested, and the IC50 was under 100 nM. O=C(O)C1CCN(C(=O)CC(c2ccc(F)cc2)c2c[nH]c3cccc(F)c23)C2CCCCC12 (stereo not drawn) [Example 157, 1-[3-(4-fluoro-1H-indol-3-yl)-3-(4-fluorophenyl)propanoyl]decahydroquinoline-4-carboxylic acid] gave an IC50 of under 100 nM. CC(CC(=O)N1CCC(C(=O)O)C2CCCCC21)c1c[nH]c2cccc(Cl)c12 (stereo not drawn) [Example 158, 1-[3-(4-chloro-1H-indol-3-yl)butanoyl]decahydroquinoline-4-carboxylic acid] showed an IC50 of over 250 nM. For CC(C)C(CC(=O)N1CCC(C(=O)O)C2CCCCC21)c1c[nH]c2ncccc12 (stereo not drawn) [Example 163, 1-[4-methyl-3-(1H-pyrrolo[2,3-b]pyridin-3-yl)pentanoyl]decahydro quinoline-4-carboxylic acid], the IC50 was over 250 nM. For CC(C)C(CC(=O)N1CCCC2CCCCC21)c1c[nH]c2ncccc12 (stereo not drawn) [Example 164, 4-methyl-1-(octahydroquinolin-1(2H)-yl)-3-(1H-pyrrolo[2,3-b]pyridin-3-yl)pentan-1-one], the IC50 was 100 to 150 nM. Work on CC(CC(=O)N1CCC(C(=O)O)C2CCCCC21)c1c[nH]c2ncccc12 (stereo not drawn) [Example 165, 1-[3-(1H-pyrrolo[2,3-b]pyridin-3-yl)butanoyl]decahydroquinoline-4-carboxylic acid] yielded an IC50 of over 250 nM. Work on CC(CC(=O)N1CCCC2CCCCC21)n1nnc2c(Cl)cccc21 (stereo not drawn) [Example 166, 3-(4-chloro-1H-benzotriazol-1-yl)-1-(octahydroquinolin-1(2H)-yl)butan-1-one] yielded an IC50 of over 250 nM. CC(CC(=O)N1CCCC2CCCCC21)n1nc2cccc(Cl)c2n1 (stereo not drawn) [Example 167, 3-(4-chloro-2H-benzotriazol-2-yl)-1-(octahydroquinolin-1(2H)-yl)butan-1-one] showed an IC50 of under 100 nM. For Cc1cccc2c1nnn2C(C)CC(=O)N1CCC(C(=O)O)C2CCCCC21 (stereo not drawn) [Example 168, 1-[3-(4-methyl-1H-benzotriazol-1-yl)butanoyl]decahydroquinoline-4-carboxylic acid], the IC50 was over 250 nM. In the case of Cc1cccc2nn(C(C)CC(=O)N3CCC(C(=O)O)C4CCCCC43)nc12 (stereo not drawn) [Example 169, 1-[3-(4-methyl-2H-benzotriazol-2-yl)butanoyl]decahydroquinoline-4-carboxylic acid], the IC50 is reported as over 250 nM. In the case of O=C(O)C1CCC2CCCCC2N1C(=O)CC(c1cccs1)c1c[nH]c2cccc(F)c12 (stereo not drawn) [Example 170, 1-[3-(4-fluoro-1H-indol-3-yl)-3-(thiophen-2-yl)propanoyl]decahydroquinoline-2-carboxylic acid], the IC50 is reported as over 250 nM. CC(CC(=O)N1CCC(C(=O)O)C2CCCCC21)c1c[nH]c2nccc(Cl)c12 (stereo not drawn) [Example 171, 1-[3-(4-chloro-1H-pyrrolo[2,3-b]pyridin-3-yl)butanoyl]decahydroquinoline-4-carboxylic acid] was tested, and the IC50 was over 250 nM. Compound Cc1cccc2c1nnn2C(CC(=O)N1CCCC2CCCCC21)C(C)C (stereo not drawn) [Example 172, 4-methyl-3-(4-methyl-1H-benzotriazol-1-yl)-1-(octahydroquinolin-1(2H)-yl)pentan-1-one] has an IC50 of over 250 nM. CC(CC(=O)N1CCCC2CCCCC21)c1nc2c(Cl)cccc2s1 (stereo not drawn) [Example 173, 3-(4-chloro-1,3-benzothiazol-2-yl)-1-(octahydroquinolin-1(2H)-yl)butan-1-one] gave an IC50 of under 100 nM. O=C(O)C1CCC2CCCCC2N1C(=O)CC(c1ccccc1)c1c[nH]c2cc(F)ccc12 (stereo not drawn) [Example 174, 1-[3-(6-fluoro-1H-indol-3-yl)-3-phenylpropanoyl]decahydroquinoline-2-carboxylic acid] showed an IC50 of over 250 nM. In the case of O=C(O)C1CC2CCCCC2N(C(=O)CC(c2ccccc2)c2c[nH]c3cc(F)ccc23)C1 (stereo not drawn) [Example 175, 1-[3-(6-fluoro-1H-indol-3-yl)-3-phenylpropanoyl]decahydroquinoline-3-carboxylic acid], the IC50 is reported as over 250 nM. O=C(O)C1CC2CCCCC2N(C(=O)CC(c2ccccc2)c2c[nH]c3cccc(F)c23)C1 (stereo not drawn) [Example 176, 1-[3-(4-fluoro-1H-indol-3-yl)-3-phenylpropanoyl]decahydroquinoline-3-carboxylic acid] was tested, and the IC50 was 150 to 200 nM. CC(C)C(CC(=O)N1CCC(C(=O)O)C2CCCCC21)c1c[nH]c2cccc(F)c12 (stereo not drawn) [Example 179, 1-[3-(4-fluoro-1H-Indol-3-yl)-4-methylpentanoyl]decahydroquinoline-4-carboxylic acid] gave an IC50 of over 250 nM. For Cc1ccnc2[nH]cc(C(CC(=O)N3CCC(C(=O)O)C4CCCCC43)C(C)C)c12 (stereo not drawn) [Example 180, 1-[4-methyl-3-(4-methyl-1H-pyrrolo[2,3-b]pyridin-3-yl)pentanoyl]decahydroquinoline-4-carboxylic acid], the IC50 was over 250 nM. With Cc1cccc2c1nnn2C(CC(=O)N1CCC(C(=O)O)C2CCCCC21)C(C)C (stereo not drawn) [Example 183, 1-[4-methyl-3-(4-methyl-1H-benzotriazol-1-yl)pentanoyl]decahydroquinoline-4-carboxylic acid] the IC50 was over 250 nM. O=C(O)C1CCN(C(=O)CC(c2cccs2)c2c[nH]c3cccc(Cl)c23)C2CCCCC12 (stereo not drawn) [Example 184, 1-[3-(4-chloro-1H-indol-3-yl)-3-(thiophen-2-yl)propanoyl]decahydroquinoline-4-carboxylic acid] gave an IC50 of over 250 nM.

Reference: US9453014B2, “Cyclic amide derivatives as inhibitors of 11-β-hydroxysteroid dehydrogenase and uses thereof” (CONNEXIOS LIFE SCIENCES PVT. LTD., priority 2011, dated 2016)
